Results on one molecule are retold here after patent US8992815B2, “Production of organic compound nanoparticles with high repetition rate ultrafast pulsed laser ablation in liquids” (IMRA America, Inc., priority 2010, dated 2015).

For data set [1] the following is noted: background statement; cited from earlier work.
Data set [2] is described as follows: Solubility of curcumin in water and methanol. Format: physicochemical. An excerpt: In a first experiment curcumin powder, purchased from Sigma Aldrich, was used as the organic source material. The curcumin powder was formed into a pellet of target material by compression in a 0.5 inch in diameter mold using three tons of pressure. The curcumin pellet was then ablated according to the present invention using deionized water as the liquid. The flow rate of the liquid in the container was about 80 milliliters per second. The curcumin pellet was ablated using an ultrafast pulsed laser having a wavelength of 1045 nanometers, using a pulse duration of 500 femtoseconds, a pulse energy of 1 microJoules, a power of 1 W and a pulse repetition rate of 1 MHz. The laser focus spot size was about 30 micrometers in diameter and the fluence is calculated at about 0.14 Joules/cm^2. The frequency of the vibrating mirror was 50 Hz with a 4 millimeter trace for 0.4 meters per second. […] The hydrocolloidal contains some large particles as evidenced by the spread of the peak and the background absorbance of the curve. The y-axis is the absorption and the x-axis is the wavelength. […] In addition, 0.1 milliliters of the curcumin nanoparticle hydrocolloidal prepared according to the present invention was mixed with 1.0 milliliters of methanol. […]

Read-outs that look alike come from different tables or passages of the source.

`COc1cc(C=CC(=O)CC(=O)C=Cc2ccc(O)c(OC)c2)ccc1O` [curcumin, 1,7-bis(4-hydroxy-3-methoxyphenyl)-1,6-heptadiene-3,5-dione]: the results for the solubility in water entry in data set [1] and in data set [2] (water) were “not water soluble” and “does not dissolve in water”, respectively. Further, the solubility in methanol entry in data set [2] (methanol, powder dissolved at 2.5×10^−5 M) is “dissolvable in methanol”.
